Measurements from US8183239B2, “Substituted piperazines and piperidines as modulators of the neuropeptide Y2 receptor” (Janssen Pharmaceutica NV, priority 2005, dated 2012).

The compounds below were run against T1, Y2 receptors (Homo sapiens, UniProt P49146) (assay: Radioligand binding assay ([125I]PYY, KAN-Ts cell membranes)). Details: IC50 (nM), Table 1, [125I]PYY 80 pM, average of results.
T1 construct: endogenous in cells; host or cells: KAN-Ts cells (membranes)
T1 sequence (P49146 1-381): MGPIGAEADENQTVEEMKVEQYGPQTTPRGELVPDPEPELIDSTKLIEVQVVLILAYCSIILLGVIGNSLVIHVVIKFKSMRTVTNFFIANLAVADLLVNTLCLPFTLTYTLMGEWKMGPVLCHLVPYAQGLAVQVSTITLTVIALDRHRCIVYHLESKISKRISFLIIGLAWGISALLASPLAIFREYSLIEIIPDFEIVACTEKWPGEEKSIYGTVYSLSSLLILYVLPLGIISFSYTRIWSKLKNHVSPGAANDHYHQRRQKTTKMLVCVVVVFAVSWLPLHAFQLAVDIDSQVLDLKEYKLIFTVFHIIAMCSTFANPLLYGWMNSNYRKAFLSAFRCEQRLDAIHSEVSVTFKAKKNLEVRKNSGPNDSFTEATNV
Protocol: Radioligand Binding Assay
KAN-Ts endogenously expressing Y2 receptors were used for the radioligand binding assay. Cells were grown to confluence on 150 cm^2 tissue culture plates, washed with phosphate-buffered saline (PBS), and scraped into 50 mL tubes. After centrifugation, the supernatant was aspirated, and the pellets frozen and stored at −80° C. Thawed pellets were homogenized with a polytron tissue grinder for 15 sec in 20 mM Tris-HCl, 5 mM EDTA. The homogenate was centrifuged at 800×g for 5 min and the collected supernatant was recentrifuged at 25000×g for 25 min. The resulting pellet was resuspended in binding buffer (20 mM HEPES, 120 mM NaCl, 0.22 mM KH2PO4, 1.3 mM CaCl2, 0.8 mM MgSO4). Membranes were incubated with [^125I]PYY (80 pM) in the presence or absence of test compound for 1 h at rt. The reaction was stopped by filtration through GF/C filter plates pre-soaked in 0.3% polyethylenimine and subsequently washed with Tris 50 mM, 5 mM EDTA buffer. Plates were dried for 1 h in a 55° C. oven, scintillation fluid was added and the radioactivity was counted in a Packard TopCount. Specific binding to the NPY receptor subtypes was determined by radioactivity that was bound in the presence of […]. Each binding experiment was repeated three to eight times, each in duplicate. IC50 values (i.e. concentration of unlabelled peptide or antagonist required to compete for 50% of specific binding to the radioligand) were calculated using the GraphPad Prism software (GraphPad Software Inc., San Diego Calif.) with a fit to a sigmoidal dose response curve. Data for compounds tested are presented in Tables 1 and 2 as an average of results obtained.

With `CCC(CC)C(=O)N(c1ccccc1)C1CCN(c2ccc(NC(=O)Nc3c(C)noc3C)cc2F)CC1` [Example 32, N-(1-{4-[3-(3,5-Dimethyl-isoxazol-4-yl)-ureido]-2-fluoro-phenyl}-piperidin-4-yl)-2-ethyl-N-phenyl-butyramide] as the compound, how does the IC50 read?
The IC50 was 180 nM.

With `CCC(CC)C(=O)Nc1ccc(N2CCC(N(C(=O)C(CC)CC)c3ccccc3)CC2)c(F)c1` [Example 33, 2-Ethyl-N-{1-[4-(2-ethyl-butyrylamino)-2-fluoro-phenyl]-piperidin-4-yl}-N-phenyl-butyramide] as the compound, how does the IC50 read?
The IC50 was 180 nM.

With `CCC(CC)C(=O)Nc1ccc(N2CCN(C(C(=O)OC)c3cccc(F)c3)CC2)c(F)c1` (stereo not drawn) [Example 34, {4-[4-(2-Ethyl-butyrylamino)-2-fluoro-phenyl]-piperazin-1-yl}-(3-fluoro-phenyl)-acetic acid methyl ester] as the compound, how does the IC50 read?
Its IC50 is 40 nM.

Same assay, conditions: Table 1, [125I]PYY 80 pM, average of results, read-out: IC50

With `CCNC(=O)C(c1ccccc1)N1CCN(c2ccc(NC(=O)N[C@@H](C)c3ccc(F)cc3)cc2F)CC1` (stereo partly drawn) [Example 28, N-Ethyl-2-[4-(2-fluoro-4-{3-[(S)-1-(4-fluoro-phenyl)-ethyl]-ureido}-phenyl)-piperazin-1-yl]-2-phenyl-acetamide] as the compound, how does the IC50 read?
Its IC50 is 2900 nM.

Which IC50 does the source give for `CCN(CC)C(=O)C(c1ccccc1)N1CCN(c2ccc(NC(=O)[C@H]3CCOC3)cc2F)CC1` (stereo partly drawn) [Example 29, (S)-Tetrahydro-furan-3-carboxylic acid {4-[4-(diethylcarbamoyl-phenyl-methyl)-piperazin-1-yl]-3-fluoro-phenyl}-amide] here?
The IC50 was 65 nM.

With `CCN(CC)C(=O)C(c1ccccc1)N1CCN(c2ccc(N(CC)C(=O)N(CC)c3c(C)noc3C)cc2F)CC1` (stereo not drawn) [Example 30, 2-(4-{4-[3-(3,5-Dimethyl-isoxazol-4-yl)-1,3-diethyl-ureido]-2-fluoro-phenyl}-piperazin-1-yl)-N,N-diethyl-2-phenyl-acetamide] as the compound, how does the IC50 read?
Its IC50 is 570 nM.

Which IC50 does the source give for `CCN(CC)C(=O)C(c1ccccc1)N1CCN(c2ccc(C(=O)NCc3c(C)noc3C)cc2F)CC1` (stereo not drawn) [Example 31, 4-[4-(Diethylcarbamoyl-phenyl-methyl)-piperazin-1-yl]-N-(3,5-dimethyl-isoxazol-4-ylmethyl)-3-fluoro-benzamide] here?
The IC50 was 24 nM.

Which IC50 does the source give for `CCC(CC)C(=O)Nc1ccc(N2CCN(C(C(=O)N(CC)CC)c3cccc(F)c3)CC2)c(F)c1` (stereo not drawn) [Example 35, N-(4-{4-[Diethylcarbamoyl-(3-fluoro-phenyl)-methyl]-piperazin-1-yl}-3-fluoro-phenyl)-2-ethyl-butyramide] here?
The IC50 was 33 nM.

With `CCC(CC)C(=O)Nc1ccc(N2CCN(C(C(=O)OC)c3ccc(C#N)cc3)CC2)c(F)c1` (stereo not drawn) [Example 36, (4-Cyano-phenyl)-{4-[4-(2-ethyl-butyrylamino)-2-fluoro-phenyl]-piperazin-1-yl}-acetic acid methyl ester] as the compound, how does the IC50 read?
The IC50 was 210 nM.

`CCC(CC)C(=O)Nc1ccc(N2CCN(C(C(=O)OC)c3cccc(Cl)c3)CC2)c(F)c1` (stereo not drawn) [Example 37, (3-Chloro-phenyl)-{4-[4-(2-ethyl-butyrylamino)-2-fluoro-phenyl]-piperazin-1-yl}-acetic acid methyl ester] was tested. Which IC50 did it give?
Its IC50 is 56 nM.

Which IC50 does the source give for `CCC(CC)C(=O)Nc1ccc(N2CCN(C(C(=O)OC)c3cccc(F)c3F)CC2)c(F)c1` (stereo not drawn) [Example 38, (2,3-Difluoro-phenyl)-{4-[4-(2-ethyl-butyrylamino)-2-fluoro-phenyl]-piperazin-1-yl}-acetic acid methyl ester] here?
The IC50 was 440 nM.

`COC(=O)C(c1ccccc1)N1CCN(c2ccc(NC(=O)c3ccccc3C)cc2Cl)CC1` (stereo not drawn) [Example 39, {4-[2-Chloro-4-(2-methyl-benzoylamino)-phenyl]-piperazin-1-yl}-phenyl-acetic acid methyl ester] was tested. Which IC50 did it give?
Its IC50 is 800 nM.

`CCC(CC)C(=O)Nc1cc(F)c(N2CCN(C(C(=O)OC)c3ccccc3)CC2)c(F)c1` (stereo not drawn) [Example 40, {4-[4-(2-Ethyl-butyrylamino)-2,6-difluoro-phenyl]-piperazin-1-yl}-phenyl-acetic acid methyl ester] was tested. Which IC50 did it give?
The IC50 was 110 nM.

`CCC(CC)C(=O)Nc1cc(Cl)c(N2CCN(C(C(=O)OC)c3ccccc3)CC2)c(Cl)c1` (stereo not drawn) [Example 41, {4-[2,6-Dichloro-4-(2-ethyl-butyrylamino)-phenyl]-piperazin-1-yl}-phenyl-acetic acid methyl ester] was tested. Which IC50 did it give?
Its IC50 is 77 nM.

`CCNC(=O)C(c1ccccc1)N1CCN(c2ccc(NC(=O)C(CC)CC)c(F)c2)CC1` (stereo not drawn) [Example 42, 2-Ethyl-N-{4-[4-(ethylcarbamoyl-phenyl-methyl)-piperazin-1-yl]-2-fluoro-phenyl}-butyramide] was tested. Which IC50 did it give?
The IC50 was 4830 nM.

Which IC50 does the source give for `CCNC(=O)C(c1ccccc1)C1CCN(c2ccc(NC(=O)C(CC)CC)cc2C#N)CC1` (stereo not drawn) [Example 43, N-{3-Cyano-4-[4-(ethylcarbamoyl-phenyl-methyl)-piperidin-1-yl]-phenyl}-2-ethyl-butyramide] here?
Its IC50 is 14 nM.

For `CCC(CC)C(=O)Nc1ccc(N2CCN(C(C(=O)OC)c3ccccc3)CC2)c(F)c1` (stereo not drawn) [Example 44, {4-[4-(2-Ethyl-butyrylamino)-2-fluoro-phenyl]-piperazin-1-yl}-phenyl-acetic acid methyl ester], which IC50 is on record?
Its IC50 is 131 nM.

For `COC(=O)C(c1ccccc1)N1CCN(c2ccc(NC(=O)C3Cc4ccccc43)cc2)CC1` (stereo not drawn) [Example 45, (4-{4-[(Bicyclo[4.2.0]octa-1 (6),2,4-triene-7-carbonyl)-amino]-phenyl}-piperazin-1-yl)-phenyl-acetic acid methyl ester], which IC50 is on record?
Its IC50 is 4000 nM.

With `COC(=O)C(c1ccccc1)N1CCN(c2ccc(NC(=O)c3ccccc3I)cc2)CC1` (stereo not drawn) [Example 46, {4-[4-(2-Iodo-benzoylamino)-phenyl]-piperazin-1-yl}-phenyl-acetic acid methyl ester] as the compound, how does the IC50 read?
The IC50 was 6000 nM.

How did the IC50 turn out when `COC(=O)C(c1ccccc1)N1CCN(c2ccc(NC(=O)c3ccccc3)cc2)CC1` (stereo not drawn) [Example 47, [4-(4-Benzoylamino-phenyl)-piperazin-1-yl]-phenyl-acetic acid methyl ester] was run?
The IC50 was 10000 nM.

`COC(=O)C(c1ccccc1)N1CCN(c2ccc(NC(=O)c3ccccc3C3CCCCC3)cc2)CC1` (stereo not drawn) [Example 49, {4-[4-(2-Cyclohexyl-benzoylamino)-phenyl]-piperazin-1-yl}-phenyl-acetic acid methyl ester] was tested. Which IC50 did it give?
Its IC50 is 1300 nM.

How did the IC50 turn out when `COC(=O)C(c1ccccc1)N1CCN(c2ccc(NC(=O)c3ccccc3C)cc2)CC1` (stereo not drawn) [Example 50, {4-[4-(2-Methyl-benzoylamino)-phenyl]-piperazin-1-yl}-phenyl-acetic acid methyl ester] was run?
The IC50 was 1800 nM.

How did the IC50 turn out when `CCc1ccccc1C(=O)Nc1ccc(N2CCN(C(C(=O)OC)c3ccccc3)CC2)cc1` (stereo not drawn) [Example 51, {4-[4-(2-Ethyl-benzoylamino)-phenyl]-piperazin-1-yl}-phenyl-acetic acid methyl ester] was run?
Its IC50 is 1850 nM.

Which IC50 does the source give for `COC(=O)C(c1ccccc1)N1CCN(c2ccc(NC(=O)c3ccccc3C(C)C)cc2)CC1` (stereo not drawn) [Example 52, {4-[4-(2-Isopropyl-benzoylamino)-phenyl]-piperazin-1-yl}-phenyl-acetic acid methyl ester] here?
Its IC50 is 1400 nM.

`COC(=O)C(c1ccccc1)N1CCN(c2ccc(NC(=O)c3ccccc3Cl)cc2)CC1` (stereo not drawn) [Example 53, {4-[4-(2-Chloro-benzoylamino)-phenyl]-piperazin-1-yl}-phenyl-acetic acid methyl ester] was tested. Which IC50 did it give?
Its IC50 is 12600 nM.

Which IC50 does the source give for `COC(=O)C(c1ccccc1)N1CCN(c2ccc(NC(=O)c3ccccc3OC)cc2)CC1` (stereo not drawn) [Example 56, {4-[4-(2-Methoxy-benzoylamino)-phenyl]-piperazin-1-yl}-phenyl-acetic acid methyl ester] here?
The IC50 was 4000 nM.

With `CNc1ccccc1C(=O)Nc1ccc(N2CCN(C(C(=O)OC)c3ccccc3)CC2)cc1` (stereo not drawn) [Example 58, {4-[4-(2-Methylamino-benzoylamino)-phenyl]-piperazin-1-yl}-phenyl-acetic acid methyl ester] as the compound, how does the IC50 read?
The IC50 was 3000 nM.

How did the IC50 turn out when `COC(=O)C(c1ccccc1)N1CCN(c2ccc(NC(=O)C3CCCC3)cc2)CC1` (stereo not drawn) [Example 59, {4-[4-(Cyclopentanecarbonyl-amino)-phenyl]-piperazin-1-yl}-phenyl-acetic acid methyl ester] was run?
Its IC50 is 13100 nM.

How did the IC50 turn out when `CCC(CC)C(=O)Nc1ccc(N2CCN(C(C(=O)OC)c3ccccc3)CC2)cc1` (stereo not drawn) [Example 60, {4-[4-(2-Ethyl-butyrylamino)-phenyl]-piperazin-1-yl}-phenyl-acetic acid methyl ester] was run?
The IC50 was 527 nM.

`COC(=O)C(c1ccccc1)N1CCN(c2ccc(NC(=O)c3ccccc3)cc2F)CC1` (stereo not drawn) [Example 61, [4-(4-Benzoylamino-2-fluoro-phenyl)-piperazin-1-yl]-phenyl-acetic acid methyl ester] was tested. Which IC50 did it give?
The IC50 was 2500 nM.
